Test results: patent US20260115173A1 (University of Houston System, priority 2022, published 2026)
“Also recorded” adds a separate entry of the source. Like-named read-outs stand apart in the source and are kept apart here.

Legend:
[1] = test system: mice of both sexes; conditions: cited from earlier work
[2] = test system: male or female rats; conditions: cited from earlier work
[3] = test system: rats; conditions: rat, in vivo; cited from earlier work
[4] = 15-30 mg/kg; cited from earlier work
[5] = 15-30 mg/kg; cited from earlier work; remark: listed apart in the source
[6] = target: T1, delta opioid receptors (Homo sapiens, UniProt P41143); conditions: cited from earlier work
[7] = target: T1, delta opioid receptors; conditions: cited from earlier work; remark: listed apart in the source
[8] = test system: female Sprague Dawley rats; assay: Operant alcohol (10%) self-administration, FR2 schedule, 60-min sessions; format: in vivo, rat; conditions: for Active lever presses, post-hoc comparison with vehicle / Estimated total alcohol intake, post-hoc comparison with vehicle / Number of head entries, comparison with vehicle / Number of reinforcers earned, post-hoc comparison with vehicle: 0.3, 1.0, 3.0 mg/kg IP vs vehicle, decrease, Tukey's test
Description: (§1) Animals. A total of 10 female Sprague Dawley rats (Charles River, Wilmington, MA) were used for the alcohol self-administration studies. […] These same rats were used in the cFos immunohistochemistry study. Rats were initially housed 3-5 to a cage in polypropylene cages housed in circular towers (Animal Care Systems, Inc, Centennial, CO) located within a temperature- and humidity-controlled vivarium that was maintained on a 12:12 light/dark cycle (lights on at 6 AM). Rats weighed about 250-350 gm at the start of the experiment and were at least 100 days old. Food and water were available ad libitum throughout the study. To facilitate alcohol self-administration rats were exposed to alcohol in vapor chambers (La Jolla Alcohol Research, La Jolla, CA) for 6-weeks prior to operant training using a chronic intermittent alcohol exposure (i.e., alcohol vapors were on for 14-h and off for 10-h, 5 days per week).
Drugs. Alcohol (ethyl alcohol, 190 Proof, USP grade, Koptec, King of Prussia, PA) was diluted to 10% (with RO water, w/v) and made available for consumption via standard operant chambers (described below). MG (Cayman Chemical, Ann Arbor, MI) was prepared in 20% Tween 80 (Sigma Aldrich, St. Louis, MO) in 80% sterile saline (0.9% NaCl). […] Each dose of test drug was administered via intraperitoneal (IP) injection.
Operant self-administration training and testing. Training sessions (60 min) began with the illumination of the house light and, initially, two non-contingent dipper presentations (primes) for 10 sec. The dipper access light was illuminated for the entire length of the dipper presentation time. […] When the rat pressed the active lever, the house light would turn off, dipper would protrude, and the access area light and the triple cue light above both of the levers went off. […] Stable response levels under the FR2 schedule (≤20% variability over 2 consecutive days) under 3 second dipper presentation time were required for the animal to move into the testing phase. Test sessions (60 min) were conducted once a rat met stable lever pressing criteria. Each dose of test drug and vehicle was administered (IP) 30 minutes prior to the test session in a randomized order across rats with at least 4-7 days intervening between dose administrations.
Responses obtained from the test sessions included two measures of appetitive responding (numbers of active lever presses and head entries) and two measures of consummatory responding (numbers of reinforcers earned and estimated amount of alcohol consumed in g/kg). Estimates of the amount of alcohol delivered were derived by multiplying the number of reinforcers earned by the amount of alcohol (g) per delivery (0.1 mL) of the 10% solution and divided by body weight.
Statistical Analysis. The self-administration data were analyzed with ANOVAs to compare the two measures of appetitive responding (numbers of active lever presses and head entries) and the two measures of consummatory responding (numbers of reinforcers earned and estimated total alcohol intake in g/kg).
(§2) Significant main effects were followed by Tukey's multiple comparisons test. Comparisons with p-values less than 0.05 were considered significant and those less than 0.10 were considered a trend towards significance.

[9] = test system: male rats; conditions: male Sprague Dawley rats, 10-30 mg/kg ip vs 1, 5, 10 mg/kg i.p.; cited from earlier work
[10] = test system: cFos; assay: Immunohistochemistry: cFos activation in brain areas; format: in vivo, rat; conditions: 3 mg/kg IP, 90 min after open field test, vs control
Description: as §1

[11] = test system: male Sprague Dawley rats; conditions: cited from earlier work
[12] = test system: rats; conditions: cited from earlier work
[13] = target: T2, delta opioid receptors (Mus musculus, UniProt P32300); conditions: NG108-15 cells; effect blocked by naloxone; cited from earlier work
T2 construct: endogenous in cells; host or cells: NG108-15

[14] = NTX 1 mg/kg; cited from earlier work
[15] = test system: female Sprague Dawley rats; assay: Open field test - locomotor activity; format: in vivo, rat; conditions: N=4/group; for Distance traveled over 5-min time blocks: 3 mg/kg IP 30 min before 30-min test, vs control; for Total distance traveled over entire 30-min session: 3 mg/kg IP 30 min before test
Description: as §1
Open Field Test-Locomotor Activity. […] Drugs were administered 30 minutes before rats were placed into the open field chambers and distance traveled (cm) was tabulated in 5-min blocks across the 30-minute test.
Distance traveled over time was analyzed using a 4×6 repeated measures ANOVA with time (six 5-min blocks) as the repeating measure. Another ANOVA was conducted that included all three Drug conditions (MG, NTX, and MG+NTX).
as §2

[16] = test system: mice; conditions: i.p., cited from earlier work
[17] = test system: cFos; conditions: 2 mg/kg, i.p.; cited from earlier work
[18] = test system: female Sprague Dawley rats; conditions: 10 mg/kg (highest dose), progressive ratio schedule; cited from earlier work

T1 sequence (P41143 whole entry): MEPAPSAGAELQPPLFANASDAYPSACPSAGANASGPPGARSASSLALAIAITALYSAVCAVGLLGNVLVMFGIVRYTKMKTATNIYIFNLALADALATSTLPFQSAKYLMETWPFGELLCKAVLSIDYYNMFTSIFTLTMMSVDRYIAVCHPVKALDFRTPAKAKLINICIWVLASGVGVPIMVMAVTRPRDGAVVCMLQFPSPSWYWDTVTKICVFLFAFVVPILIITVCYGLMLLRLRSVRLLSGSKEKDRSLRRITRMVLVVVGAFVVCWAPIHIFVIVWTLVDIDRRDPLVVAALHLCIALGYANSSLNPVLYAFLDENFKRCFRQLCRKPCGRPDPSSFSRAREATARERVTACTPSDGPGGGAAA
T2 sequence (P32300 whole entry): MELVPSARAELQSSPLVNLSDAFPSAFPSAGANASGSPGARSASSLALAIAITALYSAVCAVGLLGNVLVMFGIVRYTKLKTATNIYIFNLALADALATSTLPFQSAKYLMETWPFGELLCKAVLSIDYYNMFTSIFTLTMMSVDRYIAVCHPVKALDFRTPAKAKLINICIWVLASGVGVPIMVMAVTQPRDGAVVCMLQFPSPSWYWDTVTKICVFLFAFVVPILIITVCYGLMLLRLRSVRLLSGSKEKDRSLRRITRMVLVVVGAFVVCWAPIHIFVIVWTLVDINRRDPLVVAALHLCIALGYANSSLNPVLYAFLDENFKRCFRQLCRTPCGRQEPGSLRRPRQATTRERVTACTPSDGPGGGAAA

In the case of `CC[C@@H]1CN2CC[C@@]3(O)C(=Nc4cccc(OC)c43)[C@@H]2C[C@@H]1/C(=C\OC)C(=O)OC` [7-HMG, 7-hydroxymitragynine, reference compound], the Alcohol consumption ([1]; dose not given) is listed as “significantly reduced alcohol consumption as did 7-HMG”, the “Abuse liability in ICSS” value ([2]; rat, in vivo) is listed as “abuse liability was not shown in ICSS” and the Self-administration by rats [3] is listed as “readily self-administered by rats”.
In the case of `CC[C@@H]1CN2CCc3c([nH]c4cccc(OC)c34)[C@@H]2C[C@@H]1/C(=C\OC)C(=O)OC` [MG, mitragynine], the Place conditioning [4] is listed as “induce place conditioning”, the “Substitution for morphine in drug discrimination tests” value [5] is listed as “partially substitute for morphine” and the Binding [6] is listed as “very low binding to delta opioid receptors”. For the same compound, the Alcohol consumption ([1]; 30 and 100 mg/kg, i.p.) was “significantly reduced alcohol consumption”, the Activity at receptor [7] was “has activity at delta opioid receptors” and the “Active lever presses, post-hoc comparison with vehicle” value [8] was “significant differences in active lever presses between vehicle and 1.0 (P<0.01) and 3.0 mg/kg (P<0.0001)”. For the same compound, the “Estimated total alcohol intake, post-hoc comparison with vehicle” value [8] was “significant differences between vehicle and 1.0 (P<0.01) and 3.0 mg/kg (P<0.001)”, the “Number of head entries, comparison with vehicle” value [8] was “significant differences between vehicle and 1.0 (P<0.01) and 3.0 mg/kg (P<0.01)” and the “Number of reinforcers earned, post-hoc comparison with vehicle” value [8] was “significant differences between vehicle compared to 1.0 (P<0.05) and 3.0 mg/kg (P<0.0001)”. For the same compound, the “All alcohol self-administration measures (lever presses, head entries, reinforcers, alcohol consumed)” value ([8]; 0.3-3.0 mg/kg IP) was “All measures were significantly decreased”, the “Alcohol self-administration overall, relative efficacy of drug conditions” value ([8]; 0.3-3.0 mg/kg IP, combination vs single drugs) was “more significant effects on all four measures of alcohol self-administration than NTX” and the “Active lever presses, direct comparison between drug conditions” value ([8]; MG vs NTX vs MG+NTX at equal doses, 3x4 ANOVA, post-hoc) was “trend for a greater effect of MG on active lever presses at the 3 mg/kg dose”. For the same compound, the Locomotor activity [9] was “higher doses (10-30 mg/kg, ip) of MG but not lower doses (1, 5, 10 mg/kg, i.p.) increase locomotor activity”, the “Number of cFos positive neurons in dorsal striatum” value [10] was “did not differ from the control group” and the Heroin self-administration ([11]; 3.0 mg/kg) was “decreased heroin self-administration”. For the same compound, the “Responding when substituted for heroin” value ([11]; 0.03-3.0 mg/kg) was “did not maintain responding above saline levels”, the “Self-administration when substituted for morphine” value ([12]; broad range of doses, rats trained to self-administer (i.v.) morphine) was “did not support self-administration” and the “i.v. morphine self-administration after prior exposure” value ([12]; prior exposure) was “decreases i.v. morphine self-administration”. For the same compound, the “Inhibition of forskolin-stimulated cAMP” value [13] was “inhibits forskolin-stimulated CAMP in a concentration manner”, the “Decrease of schedule-controlled responding by MG in presence of NTX” value [14] was “did not block MG's ability to decrease schedule-controlled responding” and the “Rewarding effect in ICSS” value ([2]; 3.2-56 mg/kg) was “did not find evidence that MG (3.2-56 mg/kg) was rewarding”. The “Distance traveled over 5-min time blocks” value [15] was “tend to increase locomotor activity”, the “Total distance traveled over entire 30-min session” value [15] was “did not differ between groups” and the Spontaneous locomotor activity ([16]; 5-30 mg/kg) was “no effect on spontaneous locomotor activity”. For the same compound, the Activity ([16]; male mice, 5, 10, 15 mg/kg) was “significant decrease in activity”.
In the case of `O=C1CC[C@@]2(O)[C@H]3Cc4ccc(O)c5c4[C@@]2(CCN3CC2CC2)[C@H]1O5` [NTX, naltrexone, reference compound], the “Active lever presses, post-hoc comparison with vehicle” value [8] is reported as “significant differences in active lever presses between vehicle and 1.0 (P<0.05) and 3.0 mg/kg (P<0.05)”, the “Estimated total alcohol intake, post-hoc comparison with vehicle” value [8] is reported as “significant differences between vehicle and 1.0 (P<0.05) and 3.0 mg/kg (P<0.05)” and the “Number of head entries, comparison with vehicle” value [8] is reported as “trend towards a main effect for Dose”. The “Number of reinforcers earned, post-hoc comparison with vehicle” value [8] was “significant differences between vehicle compared to 1.0 (P<0.05) and 3.0 mg/kg (P<0.05)”, the “All alcohol self-administration measures (lever presses, head entries, reinforcers, alcohol consumed)” value ([8]; 0.3-3.0 mg/kg IP) was “All measures were significantly decreased by naltrexone except for head entries that showed a trend towards significance” and the “Number of cFos positive neurons in dorsal striatum” value [10] was “did not differ from the control group”. The “Number of cFos positive neurons in nucleus accumbens (NAC)” value [10] was “significant difference between control and NTX (P=0.002); also recorded: increased cFos levels to a similar degree to that of MG and NTX combined”, the cFos expression [17] was “increases cFos expression in several brain areas including the NAC” and the “Distance traveled over 5-min time blocks” value [15] was “tend to increase locomotor activity”. The “Total distance traveled over entire 30-min session” value [15] was “did not differ between groups” and the “Active lever presses, reinforcers earned, head entries” value [18] was “decreased active lever presses, reinforcers earned but not head entries”.
